Key:
β-adrenergic receptor = experiment: quantitative autoradiography of brain sections from suicides and controls ([125I]iodopindolol); type: binding, human
Procedure: Beta Receptor Autoradiography
Iodopindolol is a well characterized βAR antagonist with a very high affinity (<1 nM) and specificity (Barovsky, K. et al., supra). Receptor binding studies are performed according to techniques well known in the art (see, for example, Kuhar, M. J., supra; Rainbow, T. C. et al., 1982, 1984, supra). A preferred method is described herein, although it will be apparent to one of skill in the art that the disclosed method may be modified according to the tissue preparation and ligand used.
Slides holding tissue sections are incubated for about 70 min at approximately 25° C. with 0.15 nM ^125 I-iodopindolol (New England Nuclear, 2200 Ci/mmole) in 25 mM Tris buffer, pH 7.5, containing 150 mM NaCl. Nonspecific binding is determined in the presence of 1 μM propranolol (see Examples, below). Zinterol, a selective β2 blocker, or metoprolol, a selective β1 antagonist, are added to the incubation buffer at 0.1 μM to achieve selective labeling of the β1 and β2 receptor subtypes, respectively. The incubation is followed by three 20 min washes in the same ice cold buffer. Slides are then dipped in ice cold distilled water to remove buffer salts, dried on a 50° C. slide warmer and apposed to ^3 H-sensitive film (Amersham ^3 H-hyperfilm) for 48-96 hours. The film is coexposed to commercial iodine standards (available from Amersham, for example). Film is developed manually using standard developer and fixer such as those available from the Eastman-Kodak Company. Sections are stained with cresyl violet and structures identified from the stained sections with the assistance of atlases and neuroanatomical texts such as: Barr M. L., The Human Nervous System: An Anatomical Viewpoint. Harper and Row, New York (1974); Carpenter M. B., Human Neuroanatomy. Williams and Wilkins, Baltimore (1976); DeArmond S. J. et al., Structure of the Human Brain : A Photographic Atlas. Oxford University Press, New York (1974); Nieuwenhuys R. et al., The Human Central Nervous System, Springer-Verlag, New York (1981 ), which references are hereby incorporated by reference.
Autoradiograms are analyzed by computerized image analysis systems well-known in the art (for example, with the aid of an IBM-PC). The autoradiograms are placed on a light box and a video camera is used for image acquisition. […] Standard curves derived from the iodine standards are used to convert gray level readings into equivalents of fmol ^125 I-iodopindolol / mg tissue. Specific binding is calculated by subtracting nonspecific from total binding.
Fourteen suicide and 14 pair-matched control brains were collected over 3 years from the medical examiner's offices in New York City and Jaffa, ISRAEL. […] The results of the coroner's examination as well as the results of broad-spectrum toxicological tests performed by the forensic laboratory were made available within 8 weeks. Only drug-free and pathology-free brains were included. For each suicide brain, a control matched for sex and age group with a PMD under 48 hours was collected the same day or within a few days, so that the pairs are also matched for storage time. The brains from each pair were dissected or sectioned on the same day and receptors were labeled in the same experiment, by an experimenter blind to the identity of the samples.
For autoradiography, slices from frontal cortical and anterior basal ganglia levels were sectioned in a Bright Cryotome (a refrigerated whole-body microtome) at -15° C. Sections of 40 μm were thaw- mounted onto gelatin-coated glass slides and βARs were labeled with [^125 I]iodopindolol (Pazos et al., Brain Res. 358:324-328 (1982)); Rainbow et al., Proc. Natl. Acad. Sci. U.S.A., 81:1585-1589 (1984)). Receptors were labeled with 150 pM iodopindolol, with or without 10^-6 M propranolol to define non-specific binding. The autoradiograms were developed after 48 or 72 hours. […]

βAR = experiment: quantitative autoradiography, age dependence of βAR distribution in the human brain; type: binding
[1] = whole body distribution, female BALB/c mice, 500 μCi/kg; type: in vivo, mouse (BALB/c)

Which nonspecific binding (β-adrenergic receptor; FIG. 2, sagittal section, normal male, in the presence of propranolol) does the source give for CC(C)NCC(O)COc1cccc2[nH]cc([125I])c12 (stereo not shown) [^125 I-iodopindolol] here?
The nonspecific binding was “low and uniform throughout the section”.

And the “[125I]iodopindolol bound” value (β-adrenergic receptor; caudate, control, n=5)?
Its value is 13.2 ± 4.0 fm/mg tissue.

What about the “[125I]iodopindolol bound” value (β-adrenergic receptor; caudate, suicide, n=5) of the same compound?
Its value is 15.4 ± 2.0 fm/mg tissue.

And the “[125I]iodopindolol bound” value (β-adrenergic receptor; cingulate gyrus, control, n=8)?
Its value is 11.8 ± 3.3 fm/mg tissue.

And the “[125I]iodopindolol bound” value (β-adrenergic receptor; cingulate gyrus, suicide, n=8, P < 0.04)?
The value was 16.0 ± 2.7 fm/mg tissue.

What about the “[125I]iodopindolol bound” value (β-adrenergic receptor; frontalis inferior, control, n=6) of the same compound?
The value was 14.2 ± 4.0 fm/mg tissue.

What about the “[125I]iodopindolol bound” value (β-adrenergic receptor; frontalis inferior, suicide, n=6) of the same compound?
Its value is 17.2 ± 4.1 fm/mg tissue.

And the “[125I]iodopindolol bound” value (β-adrenergic receptor; frontalis medius, control, n=8)?
Its value is 9.3 ± 4.0 fm/mg tissue.

What about the “[125I]iodopindolol bound” value (β-adrenergic receptor; frontalis medius, suicide, n=8) of the same compound?
Its value is 16.7 ± 3.5 fm/mg tissue.

What about the “[125I]iodopindolol bound” value (β-adrenergic receptor; frontalis superior, control, n=9) of the same compound?
Its value is 10.8 ± 2.6 fm/mg tissue.

What about the “[125I]iodopindolol bound” value (β-adrenergic receptor; frontalis superior, suicide, n=9, P < 0.03) of the same compound?
Its value is 17.2 ± 2.9 fm/mg tissue.

And the “[125I]iodopindolol bound” value (β-adrenergic receptor; putamen, control, n=5)?
Its value is 19.5 ± 1.1 fm/mg tissue.

And the “[125I]iodopindolol bound” value (β-adrenergic receptor; putamen, suicide, n=5)?
Its value is 17.4 ± 2.5 fm/mg tissue.

What about the “[125I]iodopindolol bound” value (β-adrenergic receptor; white matter (cortical), control, n=9) of the same compound?
Its value is 5.6 ± 1.8 fm/mg tissue.

And the “[125I]iodopindolol bound” value (β-adrenergic receptor; white matter (cortical), suicide, n=9)?
Its value is 6.7 ± 0.7 fm/mg tissue.

And the specifically bound (βAR; caudate nucleus, head, male, N=5)?
Its specifically bound is 1.45 ± 0.34 fmol [^125 I]iodopindolol/mg tissue.

And the specifically bound (βAR; caudate nucleus, tail, female, N=8)?
The specifically bound was 1.15 ± 0.17 fmol [^125 I]iodopindolol/mg tissue.

And the specifically bound (βAR; caudate nucleus, tail, male, N=14)?
The specifically bound was 1.39 ± 0.23 fmol [^125 I]iodopindolol/mg tissue.

What about the specifically bound (βAR; claustrum, female, N=5) of the same compound?
Its specifically bound is 0.64 ± 0.18 fmol [^125 I]iodopindolol/mg tissue.

What about the specifically bound (βAR; claustrum, male, N=9) of the same compound?
Its specifically bound is 0.86 ± 0.14 fmol [^125 I]iodopindolol/mg tissue.

What about the specifically bound (βAR; entorhinal cortex, female, N=3) of the same compound?
The specifically bound was 0.94 ± 0.33 fmol [^125 I]iodopindolol/mg tissue.

And the specifically bound (βAR; entorhinal cortex, male, N=10)?
The specifically bound was 1.00 ± 0.19 fmol [^125 I]iodopindolol/mg tissue.

What about the specifically bound (βAR; globus pallidus, lateral, female, N=5) of the same compound?
Its specifically bound is 0.78 ± 0.16 fmol [^125 I]iodopindolol/mg tissue.

What about the specifically bound (βAR; globus pallidus, lateral, male, N=8) of the same compound?
Its specifically bound is 0.85 ± 0.20 fmol [^125 I]iodopindolol/mg tissue.

What about the specifically bound (βAR; globus pallidus, medial, female, N=3) of the same compound?
The specifically bound was 0.44 ± 0.09 fmol [^125 I]iodopindolol/mg tissue.

What about the specifically bound (βAR; globus pallidus, medial, male, N=8) of the same compound?
The specifically bound was 0.73 ± 0.17 fmol [^125 I]iodopindolol/mg tissue.

What about the specifically bound (βAR; hippocampus, CA fields, molecular layer, female, N=4) of the same compound?
The specifically bound was 1.70 ± 0.40 fmol [^125 I]iodopindolol/mg tissue.

What about the specifically bound (βAR; hippocampus, CA fields, molecular layer, male, N=13) of the same compound?
Its specifically bound is 1.74 ± 0.26 fmol [^125 I]iodopindolol/mg tissue.

And the specifically bound (βAR; hippocampus, CA fields, pyramidal layer, female, N=4)?
The specifically bound was 1.70 ± 0.26 fmol [^125 I]iodopindolol/mg tissue.

And the specifically bound (βAR; hippocampus, CA fields, pyramidal layer, male, N=13)?
The specifically bound was 1.74 ± 0.26 fmol [^125 I]iodopindolol/mg tissue.

And the specifically bound (βAR; inferior temporal gyrus, external band, female, N=5)?
Its specifically bound is 1.21 ± 0.14 fmol [^125 I]iodopindolol/mg tissue.

What about the specifically bound (βAR; inferior temporal gyrus, external band, male, N=13) of the same compound?
Its specifically bound is 1.04 ± 0.16 fmol [^125 I]iodopindolol/mg tissue.

What about the specifically bound (βAR; inferior temporal gyrus, internal band, female, N=6) of the same compound?
The specifically bound was 1.11 ± 0.17 fmol [^125 I]iodopindolol/mg tissue.

What about the specifically bound (βAR; inferior temporal gyrus, internal band, male, N=13) of the same compound?
Its specifically bound is 1.14 ± 0.17 fmol [^125 I]iodopindolol/mg tissue.

And the specifically bound (βAR; lateral occipitotemporal gyrus, external band, female, N=6)?
The specifically bound was 0.93 ± 0.19 fmol [^125 I]iodopindolol/mg tissue.

And the specifically bound (βAR; lateral occipitotemporal gyrus, external band, male, N=13)?
Its specifically bound is 0.94 ± 0.13 fmol [^125 I]iodopindolol/mg tissue.

And the specifically bound (βAR; lateral occipitotemporal gyrus, internal band, female, N=6)?
Its specifically bound is 0.86 ± 0.11 fmol [^125 I]iodopindolol/mg tissue.

What about the specifically bound (βAR; lateral occipitotemporal gyrus, internal band, male, N=13) of the same compound?
Its specifically bound is 1.02 ± 0.14 fmol [^125 I]iodopindolol/mg tissue.

And the specifically bound (βAR; medial temporal gyrus, external band, female, N=6)?
Its specifically bound is 1.03 ± 0.15 fmol [^125 I]iodopindolol/mg tissue.

And the specifically bound (βAR; medial temporal gyrus, external band, male, N=13)?
The specifically bound was 1.05 ± 0.18 fmol [^125 I]iodopindolol/mg tissue.

What about the specifically bound (βAR; medial temporal gyrus, internal band, female, N=6) of the same compound?
Its specifically bound is 1.06 ± 0.15 fmol [^125 I]iodopindolol/mg tissue.

What about the specifically bound (βAR; medial temporal gyrus, internal band, male, N=13) of the same compound?
The specifically bound was 1.18 ± 0.17 fmol [^125 I]iodopindolol/mg tissue.

What about the specifically bound (βAR; parahippocampal gyrus, external band, female, N=7) of the same compound?
The specifically bound was 1.22 ± 0.32 fmol [^125 I]iodopindolol/mg tissue.

What about the specifically bound (βAR; parahippocampal gyrus, external band, male, N=13) of the same compound?
The specifically bound was 1.07 ± 0.19 fmol [^125 I]iodopindolol/mg tissue.

And the specifically bound (βAR; parahippocampal gyrus, internal band, female, N=6)?
The specifically bound was 1.01 ± 0.23 fmol [^125 I]iodopindolol/mg tissue.

And the specifically bound (βAR; parahippocampal gyrus, internal band, male, N=13)?
The specifically bound was 0.95 ± 0.15 fmol [^125 I]iodopindolol/mg tissue.

What about the specifically bound (βAR; putamen, female, N=6) of the same compound?
Its specifically bound is 1.05 ± 0.22 fmol [^125 I]iodopindolol/mg tissue.

And the specifically bound (βAR; putamen, male, N=11)?
Its specifically bound is 1.24 ± 0.18 fmol [^125 I]iodopindolol/mg tissue.

What about the specifically bound (βAR; subiculum, female, N=5) of the same compound?
Its specifically bound is 1.35 ± 0.33 fmol [^125 I]iodopindolol/mg tissue.

And the specifically bound (βAR; subiculum, male, N=12)?
The specifically bound was 1.36 ± 0.20 fmol [^125 I]iodopindolol/mg tissue.

And the specifically bound (βAR; superior temporal gyrus, external band, female, N=6)?
The specifically bound was 1.18 ± 0.18 fmol [^125 I]iodopindolol/mg tissue.

And the specifically bound (βAR; superior temporal gyrus, external band, male, N=14)?
The specifically bound was 1.13 ± 0.16 fmol [^125 I]iodopindolol/mg tissue.

What about the specifically bound (βAR; superior temporal gyrus, internal band, female, N=6) of the same compound?
Its specifically bound is 1.04 ± 0.13 fmol [^125 I]iodopindolol/mg tissue.

What about the specifically bound (βAR; superior temporal gyrus, internal band, male, N=14) of the same compound?
The specifically bound was 1.18 ± 0.15 fmol [^125 I]iodopindolol/mg tissue.

And the specifically bound (βAR; white matter, female, N=8)?
Its specifically bound is 0.47 ± 0.09 fmol [^125 I]iodopindolol/mg tissue.

And the specifically bound (βAR; white matter, male, N=18)?
The specifically bound was 0.59 ± 0.07 fmol [^125 I]iodopindolol/mg tissue.

And the “brain levels relative to blood levels (mCi per gram of brain / mCi per ml blood)” value ([1]; 1 minute post-injection)?
The value was “about 1/5”.

What about the “brain levels, injected dose” value ([1]; 1 minute post-injection) of the same compound?
The value was “less than 1 % of injected dose”.

And the urine levels ([1]; 1 minute post-injection)?
Its urine levels is “below the threshold of detection”.

And the “highest concentrations of radioactivity (counts/gram of tissue)” value ([1]; 1 minute post-injection, 500 μCi/kg i.v.)?
Its value is “in the lungs, followed by heart and other organs”.

And the receptor occupancy ([1]; 120 min, based on Bmax of approximately 2 pmole/gram brain)?
The receptor occupancy was “less than 1%”.

And the “Bmax used for receptor occupancy” value ([1]; extrapolated from rat and human values)?
Its value is “approximately 2 pmole/gram brain”.

And the “brain levels, total injected dose” value ([1]; two hours later (120 min))?
The value was 0.06 % of total injected dose.

And the “highest activity, order of organs” value ([1]; two hours later (120 min))?
Its value is “highest activity was found in urine, followed by lung, heart and brain”.

Source: US5304367A, “In vivo brain imaging agent and method for diagnosis of psychiatric disorders” (New York University, priority 1990, dated 1994)
